Columns and labels:
[1] = Cytotoxicity (CC50), MTS assay
Description: (§1) LLC/MK2 (ATCC® CCL-7), HEK-293 (ATCC® CRL-1573), HepG2 (ATCC® HB-8065), THP-1 (ATCC® TIB-202), Huh-7, RD (ATCC® CCL-136™), and C6/36 (ATCC® CRL-1660) cell lines were propagated and maintained as previously described[16],[21],[40],[53]. Reference DENV1 (16007), DENV2 (NGC, 16681), DENV3 (16562), DENV4 (1036), ZIKV (SV0127/14), and EV-A71 (BRCR) were propagated in Vero, C6/36, and R.D. cells as described[16],[21] Phumee et al.[53]. Cytotoxic concentration (CC50) of LLC/MK2, THP-1, HEK-293, HepG2, Huh-7, and R.D. cells were analyzed as previously described. […] Briefly, cells were seeded overnight and infected with each virus at the multiplicity of infection (M.O.I.) of 0.1 for 1 h. The compound was added during and after infection, and cells were incubated for 72 h. Supernatants were collected for 96-well[55] or a traditional 24-well plaque titration.
(§2) Supplementary Fig. S2. […] Briefly, cells were seeded overnight before the compound addition.

DENV3 = experiment: Time-of-addition, viral RNA by RT-qPCR; format: cell-based; conditions: 10 µM added 1, 6, and 12 h after infection, LLC/MK2, M.O.I. 1
Method: (§3) The protocol was adapted from a previous description. Briefly, LLC/MK2 cells (5 × 10^4) were seeded in a 24-well plate and incubated as described. Cells were infected with DENV2 NGC, unless otherwise indicated, at the M.O.I. of 0.1 before adding the compound at designated concentrations. DMSO at 1% was used as no inhibition control. Supernatants were collected to determined viral titers by plaque titration assay or RT-qPCR.
(§4) Supplementary Fig. S8. The time-of-addition of 8-bromobaicalein against DENV3-, and ZIKV-infected LLC/MK2 cells. Briefly, the 10 µM 8-bromobaicalein was added to the virus-infected cells (M.O.I. of 1) at 1, 6, 12, 24, and 48 h post-infection. Supernatants were collected at 48 h after infection for analysis by RT-qPCR. Results were reported as percent inhibition from DMSO-treated cells.

ZIKV = experiment: Time-of-addition, viral RNA by RT-qPCR; format: cell-based; conditions: 10 µM added 1, 6, and 12 h after infection, LLC/MK2, M.O.I. 1
Method: as §3, §4

DENV1 (16008) = experiment: Antiviral efficacy (EC50), plaque titration; format: cell-based; conditions: for EC50: LLC-MK2, 72 h
Description: as §1

EV-A71 (BRCR) = experiment: Antiviral efficacy (EC50), plaque titration; format: cell-based
Description: as §1

DENV3 (16562) = experiment: Antiviral efficacy (EC50), plaque titration; format: cell-based; conditions: for EC50: LLC-MK2, 72 h
Description: as §1

ZIKV (SV0127/14) = experiment: Antiviral efficacy (EC50), plaque titration; format: cell-based; conditions: for EC50: Zika virus, ZIKV (SV0127/14), LLC/MK2 cells, M.O.I. 0.1, 72 h
Description: as §1

DENV4 (1036) = experiment: Antiviral efficacy (EC50), plaque titration; format: cell-based; conditions: for EC50: LLC-MK2, 72 h
Description: as §1

DENV2 (NGC) = experiment: Antiviral efficacy (EC50), plaque titration; format: cell-based; conditions: for EC50: Dengue virus, DENV2, LLC-MK2, 72 h
Description: as §1

[2] = Cytotoxicity (CC50), MTS assay; conditions: human
Description: as §1, §2

[3] = Cytotoxicity (CC50), MTS assay; conditions: human; remark: listed apart in the source
Description: as §1, §2

[4] = test system: chikungunya virus (CHIKV); experiment: Antiviral efficacy (EC50) against chikungunya virus; format: cell-based; conditions: LLC-MK2
C57BL/6 mice = experiment: Animal toxicity, 7 days intraperitoneal
Method: (A) ALT and (B) Cr levels in infant mice and (C) ALT and (D) Cr levels in adult mice taken at the 8th day after seven consecutive days of 10 mg/kg 8-bromobaicalein, once daily, intraperitoneal administration. Plasma samples were collected for analysis of hepatorenal functions. Each data point represented the ALT or Cr levels of each individual. Error bars indicated the standard deviation of the means.
All methods were carried out in accordance with relevant guidelines and regulations. All experimental protocols were approved by the Institutional Animal Care and Use Committee of the Faculty of Medicine, Chulalongkorn University, Bangkok, Thailand (certificate number: 027/2562), based on the National Institutes of Health, U.S.A.'s criteria for the use and treatment of laboratory animals and by the National University of Singapore (protocol number: R20-0073). All methods are reported in accordance with ARRIVE guidelines (https://arriveguidelines.org) for the reporting of animal experiments. The 8-bromobaicalein was daily administered at 10 mg/kg via intraperitoneal injection for 7 days (n = 6) to determine the drug safety. The control group (n = 6) was injected with the vehicle (5% DMSO, 33.25% polyethylene glycol (PEG.)-400, 1.90% ethanol, and 59.85% distilled water). All mice were weighed daily and monitored for clinical signs using a clinical scoring system. Blood samples were collected via submandibular and cardiac puncture at the 8th day after the first compound administration for alanine transaminase (EnzyChrom, EALT-100, BioAssay, Hayward, CA, USA), and serum creatinine (QuantiChromTM, DICT-500, BioAssay, Hayward, CA, USA) as markers of hepatotoxicity and nephrotoxicity, respectively.

[5] = Cytotoxicity (CC50), MTS assay; conditions: human; remark: listed apart in the source
Description: as §1, §2

DENV2 NS5/RdRp = target: T1, DENV2 NS5/RdRp (Dengue virus type 2, UniProt P29990); experiment: In vitro RdRp assay (SYTO-9 fluorescence); format: biochemical, DENV-2
T1 construct: The 73.2 kDa of non-tagged NS5/RdRp was successfully purified by size exclusion chromatography; His-tag (N, cleaved yes); made in house
Method: The production of DENV2 RdRp was performed according to a described protocol. In brief, N-terminally Histidine-tagged DENV2 RdRp (NHis-RdRp) was expressed with 200 µM IPTG (isopropyl-b-D-thiogalactopyranoside) induction, at 37 °C for 4 h. Cell disruption and clarification were sequentially done via sonication and centrifugation at 15,000 rpm for 1 h at 4 °C. His-tagged RdRp was purified by immobilized metal affinity chromatography (IMAC) with 175 mM imidazole elution. His-tag was removed by adding 2 units thrombin per 1 mg protein during dialysis for 2 days at 4 °C. The non-tagged RdRp was further purified by size exclusion chromatography. […]
The RdRp assay for inhibition testing was adapted from the previous publications[46],[71]. […] The nascent double-stranded RNA was quantitated by mixing 10 µl of the reaction mixture with 10 µl of 5 µM SYTO-9 dye in Tris–EDTA buffer and incubating at room temperature for 5 min. Fluorescence was measured at excitation and emission wavelengths of 485 nm and 520 nm, respectively, by using EnSight Multimode Plate Reader (Perkin Elmer, Waltham, MA, USA). The IC50 value was calculated from three independent experiments by using PRISM version 9 (GraphPad Software, Inc., La Jolla, CA, USA).

[6] = Cytotoxicity (CC50), MTS assay; conditions: human; remark: listed apart in the source
Description: as §1, §2

DENV1-4, and ZIKV = experiment: Antiviral efficacy, summary over dengue serotypes and Zika; format: cell-based
various cell lines = experiment: Cytotoxicities in various cell lines, summary; format: cell-based; conditions: 100 µM, most cells
Method: as §2

DENV-2 MTase = target: T2, DENV-2 MTase (Dengue virus type 2, UniProt P14340); experiment: MTase-Glo methyltransferase assay; format: biochemical; conditions: 100 µM compound
T2 construct: N-terminally Histidine-tagged DENV-2 MTase (NHis-MTase) synthesized according to previous description; His-tag (N)
T2 sequence (P14340 2493-2755): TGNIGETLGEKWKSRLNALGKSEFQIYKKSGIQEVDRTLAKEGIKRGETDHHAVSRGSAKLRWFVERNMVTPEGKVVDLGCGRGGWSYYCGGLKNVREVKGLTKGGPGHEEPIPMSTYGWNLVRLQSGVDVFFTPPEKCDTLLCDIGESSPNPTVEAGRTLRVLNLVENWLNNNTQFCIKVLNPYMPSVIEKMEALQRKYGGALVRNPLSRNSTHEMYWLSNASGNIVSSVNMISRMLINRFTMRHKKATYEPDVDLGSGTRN
Method: The production of DENV2 MTase was performed according to a described protocol. In brief, N-terminally Histidine-tagged DENV-2 MTase (NHis-MTase) synthesized according to previous description[30] (GenScript; Piscataway, NJ, USA) was expressed with 100 µM IPTG (isopropyl-b-D-thiogalactopyranoside) induction, at 27 °C for 16 h. Cell disruption and clarification were sequentially done via sonication and centrifugation at 12,000 rpm for 30 min at 4 °C. His-tagged […] was purified by immobilized metal affinity chromatography (IMAC; Cytiva, Marlborough, MA, USA) with 500 mM imidazole elution. The eluate was dialyzed against 2 L of 50 mM Tris, pH 7.5, 50 mM NaCl, 1 mM MgCl2, 40% glycerol, and 1 mM DTT at 4 °C overnight. The purified enzyme was verified by Coomassie staining and methyltransferase activity.
The MTase assay for inhibition testing was adapted from the previous publications. The MTase assay for inhibition testing was performed using MTase-Glo™ Methyltransferase Assay according to the manufacturer’s protocol (Promega, Madison, Wisconsin, USA). Each reaction was performed in 50 µl reaction using the MTase from DENV-2. […] The luminescence was measured using VICTORTM X3 2030 Multilabel Reader (Perkin Elmer, Waltham, MA, USA). The percent enzyme activity was calculated from two independent experiments by using PRISM version 9 (GraphPad Software, La Jolla, CA, USA).

DENV2 NGC = experiment: Cell-based time-of-addition study, plaque assay; conditions: 2, 5 or 10 µM, added within 12 h after infection, LLC/MK2, harvested 72 h
Method: Figure 5 A scheme and DENV2 titers (pfu/ml) in LLC/MK2 cells of time-of-drug addition study. Briefly, the 2, 5, and 10 µM 8-bromobaicalein was added into DENV2-infected cells (M.O.I. of 0.1) at various time points. All supermatants were harvested at 72 h and quantified by plaque assay. Errors indicated the standard deviation of three biological replicates.
as §3

HaCat cells = conditions: cited from earlier work
[7] = test system: dengue, Zika, and Japanese encephalitis viruses; conditions: depending the assay and detection systems ref 32, 47, 48; cited from earlier work
Vero = conditions: cited from earlier work
A549 = conditions: cited from earlier work
[8] = 8th day after first injection, 10 mg/kg i.p., infant and adult

SMILES: O=c1cc(-c2ccccc2)oc2c(Br)c(O)c(O)c(O)c12 [8-bromobaicalein]
- CC50 at 48 h ([1]; human): > 100000 nM
- CC50 at 48 h ([1]; rhesus monkey): > 250000 nM
- Inhibition of DENV3 RNA (DENV3): inhibited
- Inhibition of ZIKV RNA (ZIKV): inhibited
- Selectivity index (SI) (DENV1 (16008); DENV1, CC50/EC50 in LLC/MK2): > 378.7879
- EC50 (DENV1 (16008)): 660 ± 50 nM
- EC50 (EV-A71 (BRCR); Enterovirus A, EVA71, EV-A71 (BRCR), table title LLC/MK2 cells, methods R.D. cells): > 25000 nM
- Inhibition of enterovirus-A71 (EV-A71 (BRCR); nonenveloped enterovirus-A71): did not inhibit
- Selectivity index (SI) (DENV3 (16562); DENV3, CC50/EC50 in LLC/MK2): > 312.5
- EC50 (DENV3 (16562)): 800 ± 80 nM
- Selectivity index (SI) (ZIKV (SV0127/14); ZIKV, CC50/EC50 in LLC/MK2): > 347.2222
- EC50 (ZIKV (SV0127/14)): 720 ± 200 nM
- Selectivity index (SI) (DENV4 (1036); DENV4, CC50/EC50 in LLC/MK2): > 312.5
- EC50 (DENV4 (1036)): 800 ± 150 nM
- Selectivity index (SI) (DENV2 (NGC); DENV2, CC50/EC50 in LLC/MK2): > 284.0909
- EC50 (DENV2 (NGC)): 880 ± 140 nM
- CC50 at 48 h [2]: > 100000 nM
- CC50 at 48 h [3]: 97900 ± 7060 nM
- EC50 [4]: 490 ± 110 nM
- Clinical scorings (C57BL/6 mice; 10 mg/kg i.p. once daily, 7 days): within normal range
- General health of mice (C57BL/6 mice; 10 mg/kg i.p. once daily, 7 days, infant and adult mice): healthy throughout the experiments
- Alanine transaminase (ALT) level, treated vs control (C57BL/6 mice; [8]): insignificantly different
- Plasma creatinine (Cr) level, treated vs control (C57BL/6 mice; [8]): insignificantly different
- ALT in adult cohort (C57BL/6 mice; adult mice, 10 mg/kg i.p., 7 days): slight ALT increase
- CC50 at 48 h [5]: > 100000 nM
- IC50 (DENV2 NS5/RdRp): 34900 nM
- CC50 at 48 h [6]: > 100000 nM
- Selectivity index (SI) in dengue and Zika viruses (DENV1-4, and ZIKV; LLC/MK2): about 300
- EC50 (DENV1-4, and ZIKV; Zika virus, DENV1, read-out: EC50s against DENV1-4 and ZIKV): 660 to 880 nM
- Cytotoxicity to cells (various cell lines): not toxic
- inhibition at 100 µM (DENV-2 MTase): < 50%
- Inhibition of virion progeny (DENV2 NGC): 1–2.5 log concentrations (pfu/mL)

SMILES: O=c1cc(-c2ccccc2)oc2cc(O)c(O)c(O)c12 [baicalein, 5,6,7-trihydroxyflavone]
- CC50 at 48 h ([1]; rhesus monkey): > 250000 nM
- CC50 (HaCat cells): > 200000 nM
- EC50 (DENV1 (16008)): 1400 ± 380 nM
- EC50 (DENV3 (16562)): 1190 ± 660 nM
- EC50 (ZIKV (SV0127/14)): 1580 ± 420 nM
- EC50 (DENV4 (1036)): 930 ± 130 nM
- EC50 (DENV2 (NGC)): 4040 ± 1370 nM
- EC50 [7]: 4 to 24000 nM
- CC50 (Vero): > 100000 nM
- IC50 (DENV2 NS5/RdRp): 242000 nM
- CC50 (A549): > 50000 nM

— paper PMC10039358, “The 8-bromobaicalein inhibited the replication of dengue, and Zika viruses and targeted the dengue polymerase” (Scientific Reports, 2023)
